Laboratory results published in ChEMBL document CHEMBL5463725, “Data for DCP probe BAY-277” (2023).

Legend:
[1] = target: TGF-beta receptor type-2 (Homo sapiens) (UniProt P37173); assay: Inhibition of TGFBR2(h) at 10.0 µM in the Eurofins Kinase panel; settings: Compound concentration 10.0 uM
[2] = target: Acetylcholinesterase (Homo sapiens) (UniProt P22303); assay: Inhibition of Cholinesterase, Acetyl, ACES at 10.0 µM in the Eurofins Panlabs Safety Screen; settings: Compound concentration 10.0 uM
[3] = target: cGMP-specific 3',5'-cyclic phosphodiesterase (Homo sapiens) (UniProt O76074); assay: Inhibition of Phosphodiesterase PDE5A at 10.0 µM in the Eurofins Panlabs Safety Screen; settings: Compound concentration 10.0 uM
[4] = target: Adenosine receptor A1 (Homo sapiens) (UniProt P30542); assay: Inhibition of Adenosine A1 at 10.0 µM in the Eurofins Panlabs Safety Screen; settings: Compound concentration 10.0 uM
[5] = target: Adenosine receptor A3 (Homo sapiens) (UniProt P0DMS8); assay: Inhibition of Adenosine A3 at 10.0 µM in the Eurofins Panlabs Safety Screen; settings: Compound concentration 10.0 uM
[6] = target: B1 bradykinin receptor (Homo sapiens) (UniProt P46663); assay: Inhibition of Bradykinin B1 at 10.0 µM in the Eurofins Panlabs Safety Screen; settings: Compound concentration 10.0 uM
[7] = target: Endothelin receptor type B (Homo sapiens) (UniProt P24530); assay: Inhibition of Endothelin ETB at 10.0 µM in the Eurofins Panlabs Safety Screen; settings: Compound concentration 10.0 uM
[8] = target: GABA-A receptor; anion channel (Rattus norvegicus) (UniProt O09028+P15431+P18506+P18508+P19969+P20236+P23574+P23576+P28471+P28473+P30191+P62813+P63079+P63138+Q91ZM7+Q9ES14); assay: Inhibition of GABAA, Chloride Channel, TBOB at 10.0 µM in the Eurofins Panlabs Safety Screen; assay type: protein-complex assay; settings: Compound concentration 10.0 uM
[9] = target: Glutamate receptor 2 (Homo sapiens) (UniProt P42262); assay: Inhibition of Glutamate, AMPA at 10.0 µM in the Eurofins Panlabs Safety Screen; settings: Rattus norvegicus; Compound concentration 10.0 uM
[10] = target: Glutamate NMDA receptor (Rattus norvegicus) (UniProt P35439+Q00959+Q00960+Q00961+Q62645+Q8VHN2+Q9R1M7); assay: Inhibition of Glutamate, NMDA, Agonism at 10.0 µM in the Eurofins Panlabs Safety Screen; assay type: protein-complex assay; settings: Compound concentration 10.0 uM
[11] = target: Growth hormone secretagogue receptor type 1 (Homo sapiens) (UniProt Q92847); assay: Inhibition of Growth Hormone Secretagogue (GHS, Ghrelin) at 10.0 µM in the Eurofins Panlabs Safety Screen; settings: Compound concentration 10.0 uM
[12] = target: Histamine H1 receptor (Homo sapiens) (UniProt P35367); assay: Inhibition of Histamine H1 at 10.0 µM in the Eurofins Panlabs Safety Screen; settings: Compound concentration 10.0 uM
[13] = target: Insulin receptor (Homo sapiens) (UniProt P06213); assay: Inhibition of Insulin at 10.0 µM in the Eurofins Panlabs Safety Screen; settings: Rattus norvegicus; Compound concentration 10.0 uM
[14] = target: 5-hydroxytryptamine receptor 2A (Homo sapiens) (UniProt P28223); assay: Inhibition of Serotonin (5-Hydroxytryptamine) 5-HT2A at 10.0 µM in the Eurofins Panlabs Safety Screen; settings: Compound concentration 10.0 uM
[15] = target: T1, 5-hydroxytryptamine receptor 2C (Homo sapiens) (UniProt P28335); assay: Inhibition of Serotonin (5-Hydroxytryptamine) 5-HT2C at 10.0 µM in the Eurofins Panlabs Safety Screen; settings: Compound concentration 10.0 uM
T1 sequence (whole entry): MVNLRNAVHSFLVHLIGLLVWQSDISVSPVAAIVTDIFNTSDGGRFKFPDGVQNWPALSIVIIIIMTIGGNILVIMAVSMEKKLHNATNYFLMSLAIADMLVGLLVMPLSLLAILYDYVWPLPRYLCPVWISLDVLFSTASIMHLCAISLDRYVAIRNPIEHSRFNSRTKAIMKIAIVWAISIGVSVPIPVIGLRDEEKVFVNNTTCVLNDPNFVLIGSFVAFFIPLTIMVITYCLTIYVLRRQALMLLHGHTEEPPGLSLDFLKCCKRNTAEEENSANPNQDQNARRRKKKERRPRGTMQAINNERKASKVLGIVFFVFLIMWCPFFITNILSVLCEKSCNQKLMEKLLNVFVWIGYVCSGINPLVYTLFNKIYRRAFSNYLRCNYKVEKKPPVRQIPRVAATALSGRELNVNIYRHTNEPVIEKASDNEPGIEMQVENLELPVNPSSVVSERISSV

[16] = target: Sodium-dependent serotonin transporter (Homo sapiens) (UniProt P31645); assay: Inhibition of Transporter, Serotonin (5-Hydroxytryptamine) (SERT) at 10.0 µM in the Eurofins Panlabs Safety Screen; settings: Compound concentration 10.0 uM
[17] = target: T2, 5-hydroxytryptamine receptor 1A (Homo sapiens) (UniProt P08908); settings: Compound concentration 10.0 uM
T2 sequence (whole entry): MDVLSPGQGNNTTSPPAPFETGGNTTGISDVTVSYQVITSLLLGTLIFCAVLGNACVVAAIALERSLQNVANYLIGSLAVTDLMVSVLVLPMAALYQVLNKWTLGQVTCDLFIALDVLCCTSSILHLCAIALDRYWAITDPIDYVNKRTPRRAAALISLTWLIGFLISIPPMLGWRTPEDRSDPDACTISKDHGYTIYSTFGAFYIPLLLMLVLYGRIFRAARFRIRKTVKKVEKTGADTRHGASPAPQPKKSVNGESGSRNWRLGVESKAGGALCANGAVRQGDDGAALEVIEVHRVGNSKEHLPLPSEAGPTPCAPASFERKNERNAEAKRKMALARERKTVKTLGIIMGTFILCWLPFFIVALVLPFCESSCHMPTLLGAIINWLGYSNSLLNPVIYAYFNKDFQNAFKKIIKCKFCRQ

[18] = target: T1, 5-hydroxytryptamine receptor 2C (Homo sapiens); settings: Compound concentration 10.0 uM
[19] = target: D(1B) dopamine receptor (Homo sapiens) (UniProt P21918); settings: Compound concentration 10.0 uM
[20] = target: Sodium-dependent dopamine transporter (Homo sapiens, UniProt Q01959); settings: Compound concentration 10.0 uM
[21] = target: Alpha-1B adrenergic receptor (Homo sapiens) (UniProt P35368); settings: Compound concentration 10.0 uM
Chain of Alpha-1B adrenergic receptor (Homo sapiens) (P35368 whole entry): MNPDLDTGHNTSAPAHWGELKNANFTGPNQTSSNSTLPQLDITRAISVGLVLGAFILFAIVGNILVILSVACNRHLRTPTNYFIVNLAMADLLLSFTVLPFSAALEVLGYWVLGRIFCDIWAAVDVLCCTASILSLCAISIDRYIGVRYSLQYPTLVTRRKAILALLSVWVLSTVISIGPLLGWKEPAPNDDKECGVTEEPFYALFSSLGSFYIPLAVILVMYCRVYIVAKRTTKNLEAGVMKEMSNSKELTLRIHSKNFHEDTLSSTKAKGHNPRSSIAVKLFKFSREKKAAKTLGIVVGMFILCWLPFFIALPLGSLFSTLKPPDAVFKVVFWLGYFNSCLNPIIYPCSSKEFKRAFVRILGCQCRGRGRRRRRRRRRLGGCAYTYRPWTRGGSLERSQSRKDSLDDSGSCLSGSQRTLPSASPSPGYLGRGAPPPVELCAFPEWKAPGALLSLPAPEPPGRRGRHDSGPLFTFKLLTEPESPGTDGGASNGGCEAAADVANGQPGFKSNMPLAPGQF

Chain of Sodium-dependent dopamine transporter (Q01959 whole entry): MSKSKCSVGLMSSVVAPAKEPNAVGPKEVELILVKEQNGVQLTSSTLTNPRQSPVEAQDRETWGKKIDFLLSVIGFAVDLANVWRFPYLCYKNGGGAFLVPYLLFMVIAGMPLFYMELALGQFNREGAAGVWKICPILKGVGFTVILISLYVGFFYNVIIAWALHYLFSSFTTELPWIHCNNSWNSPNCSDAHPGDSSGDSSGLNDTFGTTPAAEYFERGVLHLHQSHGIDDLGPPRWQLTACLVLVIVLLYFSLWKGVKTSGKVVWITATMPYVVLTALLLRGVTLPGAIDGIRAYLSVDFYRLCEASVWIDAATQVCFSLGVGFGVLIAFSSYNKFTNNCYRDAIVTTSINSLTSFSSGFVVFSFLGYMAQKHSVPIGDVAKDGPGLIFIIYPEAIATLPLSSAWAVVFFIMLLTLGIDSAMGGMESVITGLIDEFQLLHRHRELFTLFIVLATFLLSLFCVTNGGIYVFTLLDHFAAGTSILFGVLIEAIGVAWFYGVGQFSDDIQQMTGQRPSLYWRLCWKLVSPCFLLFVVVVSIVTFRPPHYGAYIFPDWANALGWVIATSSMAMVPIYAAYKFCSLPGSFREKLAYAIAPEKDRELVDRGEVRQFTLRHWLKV
Chain of D(1B) dopamine receptor (Homo sapiens) (P21918 whole entry): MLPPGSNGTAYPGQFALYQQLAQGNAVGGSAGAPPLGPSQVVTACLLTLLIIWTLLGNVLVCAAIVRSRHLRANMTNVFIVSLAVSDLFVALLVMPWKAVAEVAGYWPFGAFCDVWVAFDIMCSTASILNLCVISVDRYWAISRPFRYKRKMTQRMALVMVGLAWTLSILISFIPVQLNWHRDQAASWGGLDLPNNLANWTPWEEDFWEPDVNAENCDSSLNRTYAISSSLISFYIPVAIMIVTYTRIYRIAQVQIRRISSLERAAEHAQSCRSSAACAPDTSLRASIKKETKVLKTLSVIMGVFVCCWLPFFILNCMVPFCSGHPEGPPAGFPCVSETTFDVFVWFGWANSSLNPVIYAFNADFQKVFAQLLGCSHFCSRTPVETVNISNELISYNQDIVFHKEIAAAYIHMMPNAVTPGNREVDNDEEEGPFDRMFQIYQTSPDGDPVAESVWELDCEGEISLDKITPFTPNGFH
Chain of Acetylcholinesterase (Homo sapiens) (P22303 whole entry): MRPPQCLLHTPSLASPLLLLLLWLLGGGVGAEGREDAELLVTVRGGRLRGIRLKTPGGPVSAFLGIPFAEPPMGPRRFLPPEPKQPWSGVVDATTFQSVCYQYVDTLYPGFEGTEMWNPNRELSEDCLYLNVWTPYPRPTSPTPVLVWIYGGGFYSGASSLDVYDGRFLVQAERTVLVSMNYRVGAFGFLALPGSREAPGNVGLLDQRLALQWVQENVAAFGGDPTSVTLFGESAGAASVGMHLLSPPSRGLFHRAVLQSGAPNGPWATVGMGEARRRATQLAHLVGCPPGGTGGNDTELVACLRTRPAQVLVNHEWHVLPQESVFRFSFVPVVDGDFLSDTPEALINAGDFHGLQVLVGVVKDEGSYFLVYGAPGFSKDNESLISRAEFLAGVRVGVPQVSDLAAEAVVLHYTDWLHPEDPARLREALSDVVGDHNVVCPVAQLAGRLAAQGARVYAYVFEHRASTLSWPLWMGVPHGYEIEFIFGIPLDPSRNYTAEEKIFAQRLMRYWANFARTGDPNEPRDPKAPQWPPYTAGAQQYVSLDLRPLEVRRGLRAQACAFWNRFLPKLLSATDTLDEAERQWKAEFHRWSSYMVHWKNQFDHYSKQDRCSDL
Chain of Adenosine receptor A1 (Homo sapiens) (P30542 whole entry): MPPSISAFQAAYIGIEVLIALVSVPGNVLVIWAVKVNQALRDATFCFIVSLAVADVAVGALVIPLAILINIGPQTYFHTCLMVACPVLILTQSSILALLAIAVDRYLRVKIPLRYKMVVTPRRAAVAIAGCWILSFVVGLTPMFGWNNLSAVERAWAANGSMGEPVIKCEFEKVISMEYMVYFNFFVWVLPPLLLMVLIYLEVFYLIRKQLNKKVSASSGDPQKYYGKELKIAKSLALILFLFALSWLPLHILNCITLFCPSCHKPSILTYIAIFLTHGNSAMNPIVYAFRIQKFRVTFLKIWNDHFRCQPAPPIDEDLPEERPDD
Chain of B1 bradykinin receptor (Homo sapiens) (P46663 whole entry): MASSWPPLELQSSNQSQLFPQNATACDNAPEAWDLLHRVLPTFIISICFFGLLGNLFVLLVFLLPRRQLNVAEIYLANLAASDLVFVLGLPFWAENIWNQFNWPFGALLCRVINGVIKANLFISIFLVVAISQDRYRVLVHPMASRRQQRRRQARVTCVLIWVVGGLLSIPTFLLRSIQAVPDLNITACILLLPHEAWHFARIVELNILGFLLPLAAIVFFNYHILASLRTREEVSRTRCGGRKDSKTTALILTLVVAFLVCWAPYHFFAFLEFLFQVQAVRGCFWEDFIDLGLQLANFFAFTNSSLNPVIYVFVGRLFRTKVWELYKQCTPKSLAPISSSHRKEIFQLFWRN
Chain of TGF-beta receptor type-2 (Homo sapiens) (P37173 whole entry): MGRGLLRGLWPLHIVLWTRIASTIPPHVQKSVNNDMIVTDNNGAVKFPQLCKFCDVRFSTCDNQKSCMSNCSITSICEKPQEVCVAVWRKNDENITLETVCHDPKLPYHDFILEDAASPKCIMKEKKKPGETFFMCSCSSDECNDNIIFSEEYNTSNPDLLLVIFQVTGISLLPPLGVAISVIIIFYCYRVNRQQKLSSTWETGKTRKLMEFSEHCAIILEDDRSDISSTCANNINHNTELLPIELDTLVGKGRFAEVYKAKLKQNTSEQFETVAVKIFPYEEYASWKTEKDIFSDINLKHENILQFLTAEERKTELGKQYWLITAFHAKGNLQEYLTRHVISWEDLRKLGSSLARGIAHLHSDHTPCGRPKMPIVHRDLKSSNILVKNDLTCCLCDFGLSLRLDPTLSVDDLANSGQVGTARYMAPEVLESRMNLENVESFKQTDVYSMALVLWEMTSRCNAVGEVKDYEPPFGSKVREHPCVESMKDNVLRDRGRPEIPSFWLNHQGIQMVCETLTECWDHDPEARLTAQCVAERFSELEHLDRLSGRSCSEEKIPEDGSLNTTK
Chain of 5-hydroxytryptamine receptor 2A (Homo sapiens) (P28223 whole entry): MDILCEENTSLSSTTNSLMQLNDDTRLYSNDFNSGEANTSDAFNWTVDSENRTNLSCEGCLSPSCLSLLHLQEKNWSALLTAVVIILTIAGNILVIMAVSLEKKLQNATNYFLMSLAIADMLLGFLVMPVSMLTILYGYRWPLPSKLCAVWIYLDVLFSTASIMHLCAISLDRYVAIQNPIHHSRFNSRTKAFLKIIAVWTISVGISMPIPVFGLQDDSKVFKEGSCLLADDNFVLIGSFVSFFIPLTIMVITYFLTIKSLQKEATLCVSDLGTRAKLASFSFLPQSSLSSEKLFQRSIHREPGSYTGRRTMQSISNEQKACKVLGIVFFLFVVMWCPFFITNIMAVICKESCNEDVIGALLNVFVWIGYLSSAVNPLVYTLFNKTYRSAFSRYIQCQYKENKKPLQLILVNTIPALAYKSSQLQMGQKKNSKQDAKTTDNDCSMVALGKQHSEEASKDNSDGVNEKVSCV
Chain of Growth hormone secretagogue receptor type 1 (Homo sapiens) (Q92847 whole entry): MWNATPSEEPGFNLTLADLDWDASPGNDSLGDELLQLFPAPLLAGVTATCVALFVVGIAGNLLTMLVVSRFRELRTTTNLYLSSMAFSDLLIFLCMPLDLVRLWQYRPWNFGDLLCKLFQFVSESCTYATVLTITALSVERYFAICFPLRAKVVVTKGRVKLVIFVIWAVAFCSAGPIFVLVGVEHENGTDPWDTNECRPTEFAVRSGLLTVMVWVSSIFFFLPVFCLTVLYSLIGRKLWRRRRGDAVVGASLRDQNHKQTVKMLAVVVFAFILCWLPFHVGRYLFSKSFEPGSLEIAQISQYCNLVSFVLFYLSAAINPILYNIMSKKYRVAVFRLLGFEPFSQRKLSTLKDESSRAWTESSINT
Chain of Histamine H1 receptor (Homo sapiens) (P35367 whole entry): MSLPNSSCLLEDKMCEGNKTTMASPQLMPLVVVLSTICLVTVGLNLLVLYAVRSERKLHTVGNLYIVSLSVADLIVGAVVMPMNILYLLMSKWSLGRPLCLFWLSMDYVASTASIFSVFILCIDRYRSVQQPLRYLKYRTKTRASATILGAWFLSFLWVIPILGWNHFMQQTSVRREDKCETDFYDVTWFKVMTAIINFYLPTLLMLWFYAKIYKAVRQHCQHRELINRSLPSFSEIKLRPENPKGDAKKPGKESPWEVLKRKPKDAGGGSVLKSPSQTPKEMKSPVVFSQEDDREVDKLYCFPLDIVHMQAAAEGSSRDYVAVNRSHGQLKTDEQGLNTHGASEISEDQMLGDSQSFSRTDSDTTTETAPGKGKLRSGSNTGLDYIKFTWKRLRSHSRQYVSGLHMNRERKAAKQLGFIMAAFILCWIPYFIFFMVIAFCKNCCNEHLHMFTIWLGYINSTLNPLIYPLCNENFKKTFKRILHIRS

Compound	inhibition [1] [%]	inhibition [2] [%]	inhibition [3] [%]	inhibition [4] [%]	inhibition [5] [%]	inhibition [6] [%]	inhibition [7] [%]	inhibition [8] [%]	inhibition [9] [%]	inhibition [10] [%]	inhibition [11] [%]	inhibition [12] [%]	inhibition [13] [%]	inhibition [14] [%]	inhibition [15] [%]	inhibition [16] [%]	inhibition [17] [%]	inhibition [18] [%]	inhibition [19] [%]	inhibition [20] [%]	also measured
O=C1NCCCC1N1Cc2cc(C3CCN(C(=O)CCCCCN4CCC(c5ccc(Oc6nn7cnnc7c7c6CCCC7)cc5)CC4)CC3)ccc2C1=O (configuration not stated)	11.3	38	10	3	21	7	-5	-5	3	0	5	22	-5	39	2	22	35.3	3.95	10.8	51.4	inhibition [21]: 2.86%
O=C1CCC(N2Cc3cc(C4CCN(C(=O)CCCCCN5CCC(c6ccc(Oc7nn8cnnc8c8c7CCCC8)cc6)CC5)CC4)ccc3C2=O)C(=O)N1 (configuration not stated)	12.7	45	25	7	16	1	2	-6	0	21	2	23	-7	35	14	32	7.96	5.83	1.6	50.7	inhibition [21]: 6.88%
